≈ marks a conversion by molar mass, not a printed value. Like-named read-outs stand apart in the source and are kept apart here. Where a SMILES comes first, the peptide text is derived from it.
What was measured:
[1] = system: A549 cells; assay: In vitro cell transfection (pGL3 luciferase gene expression), Example 1 method; type: cell-based, human; conditions: 1 day after transfection, 75, 150, 300 mM CaCl2, varying N/P ratios
Experimental: Particles of nano-sized TAT-Ca complexes were synthesized by rapidly adding and stirring 10 μL of either (0.1 μg/μL) pDNA or (30-50 nM) siRNA to 15 μL (1 μg/μL) of the TAT solution. To this solution, 15 μL of CaCl2 of known molarity (e.g. 0.3 M) was added and mixed by vigorous pipetting followed by 20-30 minutes incubation at room temperature or at 4° C. prior to use.
Preparation of PEI/pDNA Complexes. Polyethylenimine-DNA Complexes were prepared by adding 10 μl (0.1 μg/μL) of pDNA solution to 15 μL (N/P ratio of 5 or 10) polyethylenimine (PEI) solution drop-wise while stirring. Complexes were incubated at room temperature for 20-30 minutes before dilution 1.7 times (15 μL) with the appropriate buffer (e.g. nuclease-free water or CaCl2). Complexes were freshly prepared before each individual experiment.
In Vitro Cell Transfection Studies. A549 cells were trypsinized, counted and diluted to a concentration of approximately 80,000 cells/mL. Then 0.1 mL of that dilution was added to each well of a 96-well plate and the cells were incubated in a humidified atmosphere of 5% CO2 incubator at 37° C. for 24 hours. Immediately before transfection, the cells were washed once with PBS and 100 μl sample (20% of complex to 80% of serum free cell culture medium) was added to each well. Cells were incubated with the complexes for 5 hours. The transfection agent was then removed by aspiration and 100 μL of fresh serum medium was added followed by further incubation. The Luciferase Assay System from Promega was used to determine gene expression following the manufacturer's recommended protocol. The light units were normalized against protein concentration in the cells extracts, which were measured using the Coomassie Plus™ Protein Assay (Thermo Scientific). The transfection results were expressed as Relative Light Units (RLU) per mg of cellular protein.

[2] = Cytotoxicity Assay (MTS Assay), Example 1 and CPPs; type: cell-based, human; conditions: human
Experimental: (§1) Cell Culture. Culturing of human epithelial lung cell line A549 was performed according to the protocol provided by the American Type Culture Collection. A549 was grown in F-12K supplemented with 10% v/v FBS and 1% v/v Penicillin/streptomycin at 37° C. in a humidified air atmosphere containing 5% CO2.
(§2) Cytotoxicity Assay (MTS Assay). […] A549 cells were grown as described in the transfection experiments. Cells were treated with the samples for approximately 24 hours. […] The cells were incubated for 3 hours at 37° C. in the 5% CO2 incubator. The absorbance of each well was then measured at 490 nm using a microtiter plate reader (SpectraMax, M25, Molecular Devices Corp., CA) to determine cell viability.

[3] = system: A549 cells; assay: Cytotoxicity assay (MTS), Example 2; conditions: 46.9 mM CaCl2 only or in the complex
Experimental: (§4) Cytoxicity Assay. Cytotoxicity of the complexes was determined by the CellTiter 96® Aqueous Cell Proliferation Assay kit (MTS assay) from Promega. A549 cells were plated on 96-well plates with approximately 8,000 cells/well and incubated in a humid 5% CO2 incubator at 37° C. After 18-24 hours incubation, the medium was removed and the cells were washed with 100 μl serum free medium. Cells were treated with the samples for 12-24 hours. The serum free medium were then removed and replaced with a mixture of 100 μl fresh culture medium and 20 μl MTS reagent solution. The cells were incubated for 1-4 hours at 37° C. in 5% CO2 incubator. Cell viability was assessed by measuring the absorbance at 490 nm by plate reader (SpectraMax M5) and expressed as the ratio of the A490 of cells treated with inhibitors over the control samples.

[4] = system: A549 cells; assay: Cytotoxicity Assay (MTS Assay), Example 1 and CPPs; type: cell-based, human; conditions: A549 cells, MTS
Experimental: as §1, §2

[5] = system: A549-luc-C8 cells; assay: Assessment of cytotoxicity (MTS Assay), Example 4; type: cell-based, human; conditions: 24 hours, up to 5 mg/mL
Experimental: (§3) Cell culture. Culturing of human epithelial lung cell line A549-luc-C8, stably expressing luciferase, was performed according to the protocol provided by Caliper LifeSciences. A549-luc-C8 cells were grown in RPMI-1640 supplemented with 10% v/v heat inactivated FBS and 1% v/v Penicillin/streptomycin at 37° C. in a humidified air atmosphere containing 5% CO2.
as §2, with “Assessment of cytotoxicity” for “Cytotoxicity Assay”, “A549-luc-C8” for “A549”, “TAT, dTAT or PEI” for “samples”

[6] = Assessment of cytotoxicity (MTS Assay), Example 4; type: cell-based, human; conditions: human, A549-luc-C8 cells, up to 5 mg/mL
Experimental: as §3
as §2, with “Assessment of cytotoxicity” for “Cytotoxicity Assay”, “A549-luc-C8” for “A549”, “TAT, dTAT or PEI” for “samples”

[7] = system: Balb/C mice; conditions: 200 μL tail vein, Balb/C mouse
Experimental: Assessment of toxicity in vivo. Stock solutions of 0.3 M CaCl2, 10% Glucose, and 174 mg/ml dTAT were prepared. Non-silencing control siRNA (Dharmacon; Sense: […]tt; SEQ ID NO 16, Antisense: […]tt; SEQ ID NO 17) was dissolved in nuclease-free water (61.5 nM). The dTAT/siRNA complexes were prepared in 1.5 ml microcentrifuge tubes by mixing stock solutions (at concentrations indicated above). Formulation 1 used 15 μL of dTAT, 10 μL siRNA, 25 μL Glucose, and 5 μl CaCl2. Each ingredient was added to the previous component(s) and mixed by pipetting between each addition. Four of these formulas were individually prepared and kept at 4° C. for 20 minutes, then kept at room temperature for 5 minutes prior to injection. Remaining formulations (2-10) were prepared by a serial 1:2 dilution of stock siRNA solution and stock dTAT solution following the same experimental protocol as described above. The dTAT/siRNA complexes (volume=260 μl) were prepared for each individual animal and each 0.2 mL injection volume contained approximately the following amounts of dTAT peptide (mg/ml): 40, 20, 10, 5, 2.5, 1.25, 0.64, 0.32, 0.16, 0. Each formulation was administered via 200 μL injection into the tail vein of 12 week old male Balb/C mice (10 animals total).
In vivo dose escalating toxicity study. […] A dose escalating study was conducted in an effort to establish a lethal dose (LD50) for the dTAT peptide. For these studies, only a minimal amount of siRNA was included so that animal responses would be indicative of the toxicity of dTAT. Animals were administered the formulations via tail vein injection (200 μL) at doses up to 1,000 mg/kg of dTAT (Table 5).

[8] = system: A549 cells
Experimental: as §4

## H-RKKRRQHRRR-NH2 [TAT3]
[1]
  added CaCl2 concentration at which complexes showed a higher level of gene expression: 150 mM

## H-RKKRRQRRRHRRKKR-NH2 [TAT5]
[1]
  added CaCl2 concentration at which complexes showed a higher level of gene expression: 300 mM

## H-RRKRRQHRRR-NH2 [TAT4]
[1]
  added CaCl2 concentration at which complexes showed a higher level of gene expression: 150 mM

## CSCC[C@H](NC(=O)[C@H](CCCCN)NC(=O)[C@H](Cc1c[nH]c2ccccc12)NC(=O)[C@H](CCCCN)NC(=O)[C@@H](N)CCCCN)C(=O)N[C@@H](CCCNC(=N)N)C(=O)N[C@@H](CCCNC(=N)N)C(=O)N[C@@H](CC(N)=O)C(=O)N[C@@H](CCC(N)=O)C(=O)N[C@@H](Cc1ccccc1)C(=O)N[C@@H](Cc1c[nH]c2ccccc12)C(=O)N[C@H](C(=O)N[C@@H](CCCCN)C(=O)N[C@H](C(=O)N[C@@H](CCC(N)=O)C(=O)N[C@@H](CCCNC(=N)N)C(=O)NCC(=O)O)C(C)C)C(C)C [Alp] (H-KKWKMRRNQFWVKVQRG-OH)
[2]
  IC50 at 24 h: ~2140 µg/mL (≈ 942 µM)

## [Ca+2].[Cl-].[Cl-] [CaCl2, Calcium chloride]
[3]
  cytotoxicity: did not show cytotoxicity

## N=C(N)NCCC[C@H](NC(=O)[C@H](CCCNC(=N)N)NC(=O)[C@H](CCCNC(=N)N)NC(=O)[C@H](CCC(N)=O)NC(=O)[C@H](CCCNC(=N)N)NC(=O)[C@H](CCCNC(=N)N)NC(=O)[C@H](CCCCN)NC(=O)[C@H](CCCCN)NC(=O)[C@@H](N)CCCNC(=N)N)C(N)=O [TAT]
[4]
  cytotoxic effects: no evidence of cytotoxic effects
[5]
  cytotoxicity: almost no evidence of cytotoxicity

## N=C(N)NCCC[C@H](NC(=O)[C@H](CCCCN)NC(=O)[C@H](CCCCN)NC(=O)[C@H](CCCNC(=N)N)NC(=O)[C@H](CCCNC(=N)N)NC(=O)[C@H](Cc1c[nH]cn1)NC(=O)[C@H](CCCNC(=N)N)NC(=O)[C@H](CCCNC(=N)N)NC(=O)[C@H](CCCNC(=N)N)NC(=O)[C@H](CCC(N)=O)NC(=O)[C@H](CCCNC(=N)N)NC(=O)[C@H](CCCNC(=N)N)NC(=O)[C@H](CCCCN)NC(=O)[C@H](CCCCN)NC(=O)[C@@H](N)CCCNC(=N)N)C(=O)O [dTAT] (H-RKKRRQRRRHRRKKR-OH)
[6]
  IC50 at 24 h: ~4000 µg/mL (≈ 1820 µM)
[7]; dTAT 0.16 mg/mL, total dose 3.90 mg/Kg, siRNA 0.03 nM
  Toxicity/Behavioral Effects: Normal
[7]; dTAT 0.32 mg/mL, total dose 7.81 mg/Kg, siRNA 0.07 nM
  Toxicity/Behavioral Effects: Normal
[7]; dTAT 0.64 mg/mL, total dose 15.63 mg/Kg, siRNA 0.14 nM
  Toxicity/Behavioral Effects: Normal
[7]; dTAT 1.25 mg/mL, total dose 31.25 mg/Kg, siRNA 0.29 nM
  Toxicity/Behavioral Effects: Normal
[7]; dTAT 2.5 mg/mL, total dose 62.5 mg/Kg, siRNA 0.59 nM
  Toxicity/Behavioral Effects: Normal
[7]; dTAT 5 mg/mL, total dose 125 mg/Kg, siRNA 1.18 nM
  Toxicity/Behavioral Effects: Normal
[7]; dTAT 10 mg/mL, total dose 250 mg/Kg, siRNA 2.36 nM
  Toxicity/Behavioral Effects: Normal
[7]; dTAT 20 mg/mL, total dose 500 mg/Kg, siRNA 4.73 nM
  Toxicity/Behavioral Effects: Normal

## H-RKKRRHRRR-NH2 [TAT2]
[1]
  added CaCl2 concentration at which complexes showed a higher level of gene expression: 150 mM

## protamine
[8]
  IC50 (cytotoxicity): 890 µg/mL

Reference: patent US20110287547A1, “NUCLEIC ACID DELIVERY COMPOSITIONS AND METHODS” (priority 2008, published 2011)
